Our source for the inhibition values is patent publication US6620828B2, “Thiazole compounds and pharmaceutical compositions for inhibiting protein kinases and methods for their use” (Agouron Pharmaceuticals, Inc., priority 1999, dated 2003).

Each structure is given as a SMILES string.

Common to all, as to format: biochemical
In one assay the target is CDK2/Cyclin A complex (Homo sapiens, UniProt P24941). As to the kind of experiment: CDK2/Cyclin A assay. Particulars: 1.0 μM; combinatorial library compounds. In short, it runs like this: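 Radiometric assay: 150 nM CDK2/cyclin A (insect-cell CDK2, truncated cyclin A) phosphorylates His-tagged Rb fragment (residues 386-928) with 25 μM ATP plus [32P]ATP, pH 7.4 HEPES, 2% DMSO, 30 °C for 20 min. Filter-captured product counted by phosphorimager; apparent Ki from competitive or tight-binding inhibition fits.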

For another assay, the target named is T1, CDK4/Cyclin D3 complex (Homo sapiens, UniProt P11802).
T1 construct: made in house; host or cells: insect cells co-infected with baculovirus vectors
T1 sequence (P11802 whole entry): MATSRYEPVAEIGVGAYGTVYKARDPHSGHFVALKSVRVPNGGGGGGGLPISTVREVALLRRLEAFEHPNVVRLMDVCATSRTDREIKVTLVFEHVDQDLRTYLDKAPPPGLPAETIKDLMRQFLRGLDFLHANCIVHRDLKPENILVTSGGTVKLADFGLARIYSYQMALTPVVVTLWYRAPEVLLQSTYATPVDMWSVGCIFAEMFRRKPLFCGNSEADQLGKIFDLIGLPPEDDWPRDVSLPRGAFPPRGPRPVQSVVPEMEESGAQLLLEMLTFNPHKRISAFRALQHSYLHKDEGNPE
T1 sequence (P30281 whole entry partner): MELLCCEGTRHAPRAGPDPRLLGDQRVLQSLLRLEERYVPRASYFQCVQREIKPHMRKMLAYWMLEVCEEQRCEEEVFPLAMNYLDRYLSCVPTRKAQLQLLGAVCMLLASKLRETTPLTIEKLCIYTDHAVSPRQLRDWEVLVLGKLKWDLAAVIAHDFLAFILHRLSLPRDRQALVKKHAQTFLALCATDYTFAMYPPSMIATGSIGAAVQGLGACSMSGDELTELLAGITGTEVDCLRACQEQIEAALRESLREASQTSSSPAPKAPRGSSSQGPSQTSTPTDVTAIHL
As to the kind of experiment: CDK4/Cyclin D assay. Particulars: 1.0 μM; combinatorial library compounds. In short, it runs like this: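 Insect-cell-expressed CDK4/cyclin D3 (50 nM) phosphorylating His-tagged Rb fragment (residues 386-928) with 25 μM [^32P]ATP in HEPES pH 7.4, MgCl2, 2% DMSO; 20 min at 30 °C, EDTA stop. Filter-captured 32P by phosphorimager; apparent Ki from competitive or tight-binding inhibition fits.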

Assay [1] deals with T2, phosphorylated VEGF-R2Δ50 (FLVK-P) (Homo sapiens, UniProt P35968, DEL940-989/E990V).
T2 construct: VEGF-R2Δ50 contains residues 806-939 and 990-1171; made in house; host or cells: baculovirus/insect cells
T2 sequence (P35968 with tags, fused parts or gaps DEL940-989/E990V limits assumed): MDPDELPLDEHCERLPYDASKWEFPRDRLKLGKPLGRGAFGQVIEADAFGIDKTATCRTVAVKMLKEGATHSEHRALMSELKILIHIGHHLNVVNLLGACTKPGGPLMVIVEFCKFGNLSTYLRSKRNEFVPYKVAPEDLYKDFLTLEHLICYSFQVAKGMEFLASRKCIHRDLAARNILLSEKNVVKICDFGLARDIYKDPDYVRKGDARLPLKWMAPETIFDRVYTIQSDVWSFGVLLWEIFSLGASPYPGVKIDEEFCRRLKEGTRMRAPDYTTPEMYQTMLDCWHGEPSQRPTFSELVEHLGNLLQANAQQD
As to the kind of experiment: VEGF-R2 coupled spectrophotometric (FLVK-P) assay. Particulars: read-out: VEGF % inhibition at 20 μM, 20 μM; combinatorial library compounds. In short, it runs like this: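 Baculovirus-expressed human VEGF-R2Δ50 (residues 806-939/990-1171, E990V) was autophosphorylated with 3 mM ATP, 40 mM MgCl2 for 2 h at 4° C. ADP formation was coupled via PK/LDH to NADH oxidation, read at 340 nm, with 5.1 mM poly(E4Y1), 1 mM ATP, 25 mM MgCl2, Hepes pH 7.5. Ki came from activity across compound concentrations.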

The next assay deals with T3, FL-CHK1 (Homo sapiens, UniProt O14757).
T3 construct: C-terminally His-tagged full-length human CHK1 (FL-CHK1); 6xHis (C); made in house; host or cells: baculovirus/insect cells
T3 sequence (O14757 1-476): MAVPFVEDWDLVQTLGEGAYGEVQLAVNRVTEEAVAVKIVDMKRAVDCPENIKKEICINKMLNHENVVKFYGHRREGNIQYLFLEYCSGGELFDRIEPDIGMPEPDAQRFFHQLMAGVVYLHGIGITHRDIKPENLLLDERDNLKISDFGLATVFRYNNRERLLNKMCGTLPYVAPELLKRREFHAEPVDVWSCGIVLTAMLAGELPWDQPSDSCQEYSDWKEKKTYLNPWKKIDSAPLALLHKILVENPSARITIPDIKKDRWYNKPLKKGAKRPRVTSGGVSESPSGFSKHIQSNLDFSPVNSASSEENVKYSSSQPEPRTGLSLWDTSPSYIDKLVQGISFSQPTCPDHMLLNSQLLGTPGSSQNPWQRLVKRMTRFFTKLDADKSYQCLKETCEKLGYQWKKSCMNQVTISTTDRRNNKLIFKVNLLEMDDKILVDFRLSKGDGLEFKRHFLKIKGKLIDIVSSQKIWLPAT
Description: CHK1 assay. Particulars: 20 μM; combinatorial library compounds. In short, it runs like this: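 Full-length human CHK1 with C-terminal 6×His tag, made in baculovirus/insect cells, 10 nM, phosphorylating 0.125 mM Syntide-2 with 0.15 mM ATP in 50 mM Tris pH 7.5, 25 mM MgCl2, 400 mM NaCl. PK/LDH-coupled NADH oxidation read at 340 nm. Ki from initial rates over varied compound concentrations.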

With `CC(C)c1ccc(Nc2nc(N)c(-c3nc(-c4ccc(O)c(O)c4)cs3)s2)cc1`, the inhibition at 1 µM at CDK2/Cyclin A complex amounted to 23.8%; on CDK4/Cyclin D3 complex it was 62.7%. Also, the inhibition at 20 µM in assay [1] was 28%; on FL-CHK1, 31.6%.
Consider `CC(C)c1ccc(Nc2nc(N)c(-c3nc(-c4ccc5ccccc5c4)cs3)s2)cc1`, for which the inhibition at 1 µM on CDK2/Cyclin A complex worked out at 17.2%; on CDK4/Cyclin D3 complex it was 51.2%. The inhibition at 20 µM in assay [1] is -2%; at FL-CHK1, 10.7%.
In the same order, the values of `Cc1cc(-c2csc(-c3sc(Nc4ccc(C(C)C)cc4)nc3N)n2)c(C)s1` are 17.5%, 76.5%, 50% and 27.4%.
For `CC(C)c1ccc(Nc2nc(N)c(-c3nc(-c4ccc5c(c4)OCCO5)cs3)s2)cc1` the same measures were 22%, 50.6%, 14% and 23.8%.
In the same order, the values of `CC(C)c1ccc(Nc2nc(N)c(-c3nc(-c4ccc(F)cc4)cs3)s2)cc1` are 16.1%, 80.7%, 48% and 39.8%.
As for `CC(C)c1ccc(Nc2nc(N)c(-c3nc(-c4ccc(OC(=O)c5ccccc5)cc4)cs3)s2)cc1`, the inhibition at 1 µM at CDK2/Cyclin A complex stood at 73%; on CDK4/Cyclin D3 complex, 45.9%. The inhibition at 20 µM in assay [1] is -4%; at FL-CHK1 it was 7.5%.
In the same order, the values of `CC(C)c1ccc(Nc2nc(N)c(-c3nc(-c4ccc[nH]4)cs3)s2)cc1` are 19%, 53.3%, 22% and 17.6%.
For `CC(C)c1ccc(Nc2nc(N)c(-c3nc(-c4ccc(F)c(F)c4)cs3)s2)cc1` the same measures were 21.2%, 39.5%, 5% and 10.9%.
For `CC(C)c1ccc(Nc2nc(N)c(-c3nc(-c4cccc([N+](=O)[O-])c4)cs3)s2)cc1` the same measures were 24.7%, 35.3%, -2% and 7.2%.
For the molecule `CC(C)c1ccc(Nc2nc(N)c(-c3nc(-c4ccc(Cl)c(Cl)c4)cs3)s2)cc1`, the inhibition at 1 µM was 10.4% on CDK2/Cyclin A complex and -7.9% on CDK4/Cyclin D3 complex. The inhibition at 20 µM in assay [1] is -4%; at FL-CHK1, 0.3%.
For `CC(C)c1ccc(Nc2nc(N)c(-c3nc(-c4ccc(O)cc4)cs3)s2)cc1` the same measures were 10.5%, 77%, 49% and 25%.
In the same order, the values of `Cc1cc(-c2csc(-c3sc(Nc4ccc(C(C)C)cc4)nc3N)n2)cc(C)c1O` are 14.1%, 74.6%, 45% and 5.1%.
For `CC(C)c1ccc(Nc2nc(N)c(-c3nc(-c4c(Cl)c(Cl)nc(Cl)c4Cl)cs3)s2)cc1` the same measures were 12.5%, 72.7%, 30% and 19.3%.
On to `Cc1ccc(-c2csc(-c3sc(Nc4ccc(C(C)C)cc4)nc3N)n2)c(C)c1`, for which the inhibition at 1 µM was found to be 23.3% at CDK2/Cyclin A complex and 50% on CDK4/Cyclin D3 complex. Also, the results for the inhibition at 20 µM (in assay [1]; on FL-CHK1) were 14% and -2.5%, respectively.
For `CC(C)c1ccc(Nc2nc(N)c(-c3nc(-c4ccc(CC(=O)O)s4)cs3)s2)cc1`, the inhibition at 1 µM at CDK2/Cyclin A complex worked out at 21.8%; at CDK4/Cyclin D3 complex, 61.8%. Moreover, the inhibition at 20 µM in assay [1] amounted to 33%; at FL-CHK1, 13%.
For `CC(C)c1ccc(Nc2nc(N)c(-c3nc(-c4cccc(OC(=O)c5ccccc5)c4)cs3)s2)cc1` the same measures were 21.7%, 48%, 5% and 8.8%.
For `COc1cc(OC)c(-c2csc(-c3sc(Nc4ccc(C(C)C)cc4)nc3N)n2)c(O)c1Cl` the same measures were 31.8%, 72.8%, 51% and 38.9%.
Turning to `CC(C)c1ccc(Nc2nc(N)c(-c3nc(-c4ccc5oc6ccccc6c5c4)cs3)s2)cc1`, the figures for the inhibition at 1 µM on CDK2/Cyclin A complex and at CDK4/Cyclin D3 complex were -4.3% and 75.5%, respectively. Besides, the inhibition at 20 µM in assay [1] was found to be 39%; at FL-CHK1, 18.9%.
For the molecule `CC(C)c1ccc(Nc2nc(N)c(-c3nc(-c4ccc5c(c4)C(C)(C)CCC5(C)C)cs3)s2)cc1`, the inhibition at 1 µM on CDK2/Cyclin A complex was 5.2%; on CDK4/Cyclin D3 complex it was 74.4%. In addition, the inhibition at 20 µM was 19% in assay [1] and 11.6% at FL-CHK1.
For `CC(C)c1ccc(Nc2nc(N)c(-c3nc(-c4ccc(C(F)(F)F)cc4)cs3)s2)cc1` the same measures were 8.7%, 48.3%, -4% and 3.7%.
For `CC(C)c1ccc(Nc2nc(N)c(-c3nc(-c4ccc5c(c4)CCC(=O)N5)cs3)s2)cc1` the same measures were 29.1%, 59.5%, 21% and 20.9%.
As for `CC(C)c1ccc(Nc2nc(N)c(-c3nc(-c4ccccc4OC(=O)c4ccccc4)cs3)s2)cc1`, the inhibition at 1 µM stood at 4.8% on CDK2/Cyclin A complex and 56.1% at CDK4/Cyclin D3 complex. In addition, the inhibition at 20 µM in assay [1] is 7%; at FL-CHK1, -4.2%.
For the molecule `CCc1cc2c(cc1-c1csc(-c3sc(Nc4ccc(C(C)C)cc4)nc3N)n1)C(C)(C)CCC2(C)C`, the figures for the inhibition at 1 µM at CDK2/Cyclin A complex and on CDK4/Cyclin D3 complex were 6.2% and 61.4%, respectively. Also, the inhibition at 20 µM in assay [1] is 13%; at FL-CHK1, 6.5%.
For `COc1ccc2nc(-c3ccccc3)c(-c3csc(-c4sc(Nc5ccc(C(C)C)cc5)nc4N)n3)cc2c1` the same measures were 26%, 85.1%, 15% and 14.1%.
`Cc1c(-c2csc(-c3sc(Nc4ccc(C(C)C)cc4)nc3N)n2)sc2ccccc12`: the figures for the inhibition at 1 µM on CDK2/Cyclin A complex and at CDK4/Cyclin D3 complex were 4% and 2.4%, respectively. Besides, the values for the inhibition at 20 µM (in assay [1]; on FL-CHK1) were 5% and -4.7%, respectively.
Turning to `CC(C)c1ccc(Nc2nc(N)c(-c3nc(-c4cc(C(C)(C)C)c(O)c(C(C)(C)C)c4)cs3)s2)cc1`, the results for the inhibition at 1 µM on CDK2/Cyclin A complex and on CDK4/Cyclin D3 complex were 20.9% and 46.8%, respectively. Moreover, the figures for the inhibition at 20 µM (in assay [1]; at FL-CHK1) were -6% and 7.9%, respectively.
For `COc1cccc(-c2csc(-c3sc(Nc4ccc(N(C)C)cc4)nc3N)n2)c1`, the inhibition at 1 µM was 16.3% on CDK2/Cyclin A complex and -20.3% at CDK4/Cyclin D3 complex. The figures for the inhibition at 20 µM (in assay [1]; on FL-CHK1) were 10% and 7.8%, respectively.
As to `CCOC(=O)c1ccccc1-c1csc(-c2sc(Nc3ccc(N(C)C)cc3)nc2N)n1`, the inhibition at 1 µM at CDK2/Cyclin A complex amounted to 19.8%; at CDK4/Cyclin D3 complex it was 45.9%. Besides, the results for the inhibition at 20 µM (in assay [1]; at FL-CHK1) were 25% and 38.5%, respectively.
For the molecule `Cc1c(C)c(C)c(-c2csc(-c3sc(Nc4ccc(N(C)C)cc4)nc3N)n2)c(C)c1C`, the figures for the inhibition at 1 µM at CDK2/Cyclin A complex and at CDK4/Cyclin D3 complex were 33.9% and 62.7%, respectively. For the same molecule, the values for the inhibition at 20 µM (in assay [1]; at FL-CHK1) were 33% and 37%, respectively.
With `CN(C)c1ccc(Nc2nc(N)c(-c3nc(-c4cc(-c5ccccc5)no4)cs3)s2)cc1`, the values for the inhibition at 1 µM on CDK2/Cyclin A complex and at CDK4/Cyclin D3 complex were 24% and 29.6%, respectively. For the same molecule, the inhibition at 20 µM is 5% in assay [1] and 0.8% at FL-CHK1.

Broadly, the inhibition is the relative decrease from the control value, in per cent.
